From the supplement of paper PMC10627819

Experiments:
B. subtilis 168 [1] = experiment: fitness (endpoint OD595 vs no drug) (fraction); higher = more growth
Procedure, shortened: (§1)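 With the first reading as background, OD595 was measured every 30 min for 14 h in 384-well plates kept at 37 °C and inoculated at OD595 0.01. TSB, LB Lennox or CY was the medium. Fitness is the optical density at the transition into stationary phase divided by the robust mean of no-drug control wells, with a cap of 1.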

S. pneumoniae D39V [2] = experiment: as above
Procedure, shortened: as §1

B. subtilis 168 [3] = experiment: Bliss interaction score (quartile over a dose matrix) (fitness difference); higher = more antagonism (negative = synergy)
Procedure, shortened: (§2)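 Quartiles summarise the Bliss score over technical, biological and donor/recipient replicates, where the score is observed minus expected fitness under a product model. Expected fitness uses single-drug values inferred from combination data. Fitness is OD595 at entry into stationary phase over the plate's robust no-drug mean, capped at 1.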

S. aureus DSM 20231 = experiment: as above
Procedure, shortened: as §2

S. aureus Newman = experiment: as above
Procedure, shortened: as §2

S. pneumoniae D39V [4] = experiment: as above
Procedure, shortened: as §2
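Throughout, for Bliss interaction score (quartile over a dose matrix): first quartile when negative (synergy) and third quartile when positive (antagonism).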

C[C@H]1COc2c(N3CCN(C)CC3)c(F)cc3c(=O)c(C(=O)O)cn1c23 [Levofloxacin] + COc1c(N2C[C@@H]3CCCN[C@@H]3C2)c(F)cc2c(=O)c(C(=O)O)cn(C3CC3)c12 [Moxifloxacin]
B. subtilis 168 [1], first compound 0.001 µg/mL, one replicate
Conditions | fitness
partner 0.0312 µg/mL | 0.575
partner 0.0625 µg/mL | 0.0212
partner 0.125 µg/mL | 0

Conditions | fitness
B. subtilis 168 [1], first compound 0.002 µg/mL, partner 0.0312 µg/mL | 0.0439
B. subtilis 168 [1], first compound 0.002 µg/mL, partner 0.0625 µg/mL | 0.0254
B. subtilis 168 [1], first compound 0.002 µg/mL, partner 0.125 µg/mL | 0.0489
B. subtilis 168 [1], first compound 0.0039 µg/mL, partner 0.0312 µg/mL | 0.0651
B. subtilis 168 [1], first compound 0.0039 µg/mL, partner 0.0625 µg/mL | 0.0551
B. subtilis 168 [1], first compound 0.0039 µg/mL, partner 0.125 µg/mL | 0.0554
B. subtilis 168 [1], first compound 0.0078 µg/mL, partner 0.0312 µg/mL | 0.0472
B. subtilis 168 [1], first compound 0.0078 µg/mL, partner 0.0625 µg/mL | 0.0515
B. subtilis 168 [1], first compound 0.0078 µg/mL, partner 0.125 µg/mL | 0.0578
B. subtilis 168 [1], first compound 0.0312 µg/mL, partner 2 µg/mL | 0.0397
B. subtilis 168 [1], first compound 0.0312 µg/mL, partner 4 µg/mL | 0.0257
B. subtilis 168 [1], first compound 0.0312 µg/mL, partner 8 µg/mL | 0.0215
B. subtilis 168 [1], first compound 0.0625 µg/mL, partner 2 µg/mL | 0.0387
B. subtilis 168 [1], first compound 0.0625 µg/mL, partner 4 µg/mL | 0.0417
B. subtilis 168 [1], first compound 0.0625 µg/mL, partner 8 µg/mL | 0.0241
B. subtilis 168 [1], first compound 0.125 µg/mL, partner 2 µg/mL | 0.0455
B. subtilis 168 [1], first compound 0.125 µg/mL, partner 4 µg/mL | 0.0375
B. subtilis 168 [1], first compound 0.125 µg/mL, partner 8 µg/mL | 0.0205
S. pneumoniae D39V [2], first compound 0.1725 µg/mL, partner 0.0037 µg/mL | 0.882
S. pneumoniae D39V [2], first compound 0.1725 µg/mL, partner 0.0075 µg/mL | 0.848
S. pneumoniae D39V [2], first compound 0.1725 µg/mL, partner 0.015 µg/mL | 0.887
S. pneumoniae D39V [2], first compound 0.2 µg/mL, partner 0.005 µg/mL | 0.899
S. pneumoniae D39V [2], first compound 0.2 µg/mL, partner 0.01 µg/mL | 0.943
S. pneumoniae D39V [2], first compound 0.2 µg/mL, partner 0.02 µg/mL | 0.857
S. pneumoniae D39V [2], first compound 0.345 µg/mL, partner 0.0037 µg/mL | 0.723
S. pneumoniae D39V [2], first compound 0.345 µg/mL, partner 0.0075 µg/mL | 0.69
S. pneumoniae D39V [2], first compound 0.345 µg/mL, partner 0.015 µg/mL | 0.738
S. pneumoniae D39V [2], first compound 0.4 µg/mL, partner 0.005 µg/mL | 0.842
S. pneumoniae D39V [2], first compound 0.4 µg/mL, partner 0.01 µg/mL | 0.85
S. pneumoniae D39V [2], first compound 0.4 µg/mL, partner 0.02 µg/mL | 0.77
S. pneumoniae D39V [2], first compound 0.69 µg/mL, partner 0.0037 µg/mL | 0.418
S. pneumoniae D39V [2], first compound 0.69 µg/mL, partner 0.0075 µg/mL | 0.391
S. pneumoniae D39V [2], first compound 0.69 µg/mL, partner 0.015 µg/mL | 0.489

Conditions | Bliss interaction score
B. subtilis 168 [3] | 0.0308
S. aureus DSM 20231 | -0.0852
S. aureus Newman | -0.201
S. pneumoniae D39V [4] | -0.0874

C[C@H]1COc2c(N3CCN(C)CC3)c(F)cc3c(=O)c(C(=O)O)cn1c23 [Levofloxacin] + COc1ccc(C[C@H](N)C(=O)N[C@H]2[C@@H](O)[C@H](n3cnc4c(N(C)C)ncnc43)O[C@@H]2CO)cc1 [Puromycin]
fitness, one replicate
Conditions | first compound 0.001 µg/mL | first compound 0.002 µg/mL | first compound 0.0039 µg/mL | first compound 0.2 µg/mL | first compound 0.4 µg/mL | first compound 0.8 µg/mL
B. subtilis 168 [1], partner 0.39 µg/mL | 0.961 | 0.909 | 0.834 | – | – | –
B. subtilis 168 [1], partner 0.78 µg/mL | 0.949 | 0.967 | 0.884 | – | – | –
B. subtilis 168 [1], partner 1.56 µg/mL | 0.934 | 0.909 | 0.868 | – | – | –
S. pneumoniae D39V [2], partner 1 µg/mL | – | – | – | 0.828 | 0.672 | 0.288
S. pneumoniae D39V [2], partner 2 µg/mL | – | – | – | 0.854 | 0.741 | 0.309
S. pneumoniae D39V [2], partner 4 µg/mL | – | – | – | 0.777 | 0.628 | 0.205

fitness
Conditions | first compound 0.0312 µg/mL | first compound 0.0625 µg/mL | first compound 0.125 µg/mL | first compound 0.1725 µg/mL | first compound 0.345 µg/mL | first compound 0.69 µg/mL
B. subtilis 168 [1], partner 0.39 µg/mL | 0.0269 | 0.0447 | 0.0177 | – | – | –
B. subtilis 168 [1], partner 0.78 µg/mL | 0.0422 | 0.0467 | 0.0355 | – | – | –
B. subtilis 168 [1], partner 1.56 µg/mL | 0.0415 | 0.0483 | 0.0409 | – | – | –
S. pneumoniae D39V [2], partner 1 µg/mL | – | – | – | 0.981 | 0.919 | 0.689
S. pneumoniae D39V [2], partner 2 µg/mL | – | – | – | 0.944 | 0.895 | 0.661
S. pneumoniae D39V [2], partner 4 µg/mL | – | – | – | 0.796 | 0.8 | 0.599

Conditions | Bliss interaction score
B. subtilis 168 [3] | -0.0129
S. aureus DSM 20231 | -0.0463
S. aureus Newman | -0.0822
S. pneumoniae D39V [4] | 0.0705

C[C@H]1COc2c(N3CCN(C)CC3)c(F)cc3c(=O)c(C(=O)O)cn1c23 [Levofloxacin] + C[n+]1ccc(-c2cc[n+](C)cc2)cc1 [Paraquat]
fitness, one replicate
Conditions | first compound 0.001 µg/mL | first compound 0.002 µg/mL | first compound 0.0039 µg/mL | first compound 0.2 µg/mL | first compound 0.4 µg/mL | first compound 0.8 µg/mL
B. subtilis 168 [1], partner 1.25 µg/mL | 0.91 | 0.941 | 0.829 | – | – | –
B. subtilis 168 [1], partner 2.5 µg/mL | 0.966 | 0.876 | 0.823 | – | – | –
B. subtilis 168 [1], partner 5 µg/mL | 0.889 | 0.778 | 0.766 | – | – | –
S. pneumoniae D39V [2], partner 1.5 µg/mL | – | – | – | 0.966 | 0.911 | 0.615
S. pneumoniae D39V [2], partner 3 µg/mL | – | – | – | 0.983 | 0.939 | 0.684
S. pneumoniae D39V [2], partner 6 µg/mL | – | – | – | 0.994 | 0.952 | 0.696

fitness
Conditions | first compound 0.0312 µg/mL | first compound 0.0625 µg/mL | first compound 0.125 µg/mL | first compound 0.1725 µg/mL | first compound 0.345 µg/mL | first compound 0.69 µg/mL
B. subtilis 168 [1], partner 1.25 µg/mL | 0.0392 | 0.0443 | 0.0452 | – | – | –
B. subtilis 168 [1], partner 2.5 µg/mL | 0.0272 | 0.0296 | 0.0268 | – | – | –
B. subtilis 168 [1], partner 5 µg/mL | 0.0508 | 0.0462 | 0.0464 | – | – | –
S. pneumoniae D39V [2], partner 1.5 µg/mL | – | – | – | 0.977 | 0.91 | 0.602
S. pneumoniae D39V [2], partner 3 µg/mL | – | – | – | 0.974 | 0.919 | 0.647
S. pneumoniae D39V [2], partner 6 µg/mL | – | – | – | 0.972 | 0.849 | 0.569

Conditions | Bliss interaction score
B. subtilis 168 [3] | -0.0255
S. aureus DSM 20231 | -0.0517
S. aureus Newman | -0.0586
S. pneumoniae D39V [4] | 0.0861
